Measurements taken from US20220168392A1 (priority 2019, published 2022).
Where “and” joins values, the source holds several entries; their conditions need not be identical. Identical values can stand only once. Square brackets hold non-standard residues; d marks the D form. * marks the point of attachment. 2Nal = N[C@@H](Cc1ccc2ccccc2c1)C(=O)O; Propionyl = CCC(=O)*; Sar = CNCC(=O)O

Legend:
[1] = system: CD2F1 male mice exposed to TBI; assay: 30-day survival after total body irradiation (TBI) in CD2F1 mice; format: in vivo, mouse; conditions: for Survival Differential (Treatment-Vehicle) / Survival treatment: CD2F1 M; for Dose Reduction Factor: male CD2F1
[2] = system: rhesus monkeys after TBI gamma radiation (600 cGY); assay: Rhesus monkey whole body irradiation pilot PK/PD study; format: in vivo
Description: A pilot PK/PD study was performed to evaluate the efficacy of RWJ-800088 in rhesus monkeys (Study No. 2016-2693—CiToxLAB North America). Rhesus monkeys (n=10/group, 5 male/5 female) were treated with vehicle or RWJ-800088 (a single dose of 30 mg/kg RWJ-800088) administered 24 hours post TBI gamma radiation (600 cGY). […] The ratio of the maximum platelet count to baseline following escalating doses of RWJ-800088 to healthy rhesus monkeys is as follows: 0.97±0.06× at 0.5 mg/kg, 1.08±0.15× at 2 mg/kg, 1.98±0.16× at 10 mg/kg, 2.9±0.03× at 20 mg/kg, and 3.83±0.11× at 40 mg/kg).

[3] = 9.25 Gy, 0.3 mg/kg single dose, Post 4 hr
[4] = 9.25 Gy, 0.3 mg/kg single dose, Pre −24 hr
[5] = 9.3 Gy, 0.3 mg/kg single dose, Post 24 hr
[6] = 9.3 Gy, 1 mg/kg single dose, Post 24 hr
[7] = 9.35 Gy, 0.1 mg/kg single dose, Post 24 hr
[8] = 9.35 Gy, 0.3 mg/kg single dose, Post 24 hr, listed as TPOm, 0.3 mg/kg
[9] = 9.35 Gy, 0.3 mg/kg, 2 doses 12 hours apart, Post, first dose 24 hr
[10] = 9.35 Gy, 0.3 mg/kg, 3 doses 8 hours apart, Post, first dose 24 hr
[11] = 9.35 Gy, 1 mg/kg single dose, Post 24 hr
[12] = 9.35 Gy, 2 mg/kg single dose, Post 24 hr
[13] = 9.35 Gy, 3 mg/kg single dose, Post 24 hr
[14] = 9.75 Gy, 0.1 mg/kg single dose, Post 4 hr
[15] = 9.75 Gy, 0.1 mg/kg single dose, Pre −24 hr
[16] = 9.75 Gy, 0.3 mg/kg single dose, Post 4 hr
[17] = 9.75 Gy, 0.3 mg/kg single dose, Pre −2 hr
[18] = 9.75 Gy, 0.3 mg/kg single dose, Pre −12 hr
[19] = 9.75 Gy, 0.3 mg/kg single dose, Pre −24 hr, listed as TPOm, 0.3 mg/kg
[20] = 9.75 Gy, 1 mg/kg single dose, Post 4 hr, listed as TPOm, 1 mg/kg
[21] = 9.75 Gy, 1 mg/kg single dose, Post 8 hr
[22] = 9.75 Gy, 1 mg/kg single dose, Post 12 hr
[23] = 9.75 Gy, 1 mg/kg single dose, Pre −24 hr
[24] = 9.75 Gy, 2 mg/kg single dose, Pre −24 hr
[25] = 9.75 Gy, 3 mg/kg single dose, Post 4 hr
[26] = 9.75 Gy, 3 mg/kg single dose, Pre −24 hr
[27] = 10.5 Gy, 0.1 mg/kg single dose, Pre −24 hr
[28] = 10.5 Gy, 0.3 mg/kg single dose, Pre −24 hr
[29] = 10.5 Gy, 1 mg/kg single dose, Pre −24 hr
[30] = 10.5 Gy, 3 mg/kg single dose, Pre −24 hr, listed as TPOm, 3 mg/kg
[31] = 11 Gy, 1 mg/kg single dose, Pre −2 hr
[32] = 11 Gy, 1 mg/kg single dose, Pre −12 hr
[33] = 11 Gy, 1 mg/kg single dose, Pre −24 hr, listed as TPOm, 1 mg/kg
[34] = 11.5 Gy, 3 mg/kg single dose, Pre −24 hr
[35] = 11.75 Gy, 3 mg/kg single dose, Pre −24 hr
[36] = 12 Gy, 1 mg/kg single dose, Pre −24 hr
[37] = 12 Gy, 3 mg/kg single dose, Pre −24 hr
[38] = 12.5 Gy, 1 mg/kg single dose, Pre −24 hr
[39] = 12.5 Gy, 3 mg/kg single dose, Pre −24 hr
[40] = 13 Gy, 1 mg/kg single dose, Pre −24 hr
[41] = 13.5 Gy, 1 mg/kg single dose, Pre −24 hr
[42] = 14 Gy, 1 mg/kg single dose, Pre −24 hr

## methoxypolyethyleneglycol20000-propionyl-L-Isoleucyl-L-Glutamyl-Glycyl-L-Prolyl-L-Threonyl-L-Leucyl-L-Arginyl-L-Glutaminyl-L-2-Naphthylalanyl-L-Leucyl-L-Alanyl-L-Alanyl-L-Arginyl-Sarcosyl-Ne-(methoxypolyethyleneglycol20000-propionyl-L-Isoleucyl-L-Glutamyl-Glycyl-L-Prolyl-L-Threonyl-L-Leucyl-L-Arginyl-L-Glutaminyl-L-2-Naphthylalanyl-L-Leucyl-L-Alanyl-L-Alanyl-L-Arginyl-Sarcosyl-)-Lysinamide ({mPEG 20 kDa-Propionyl}-IEGPTLRQ[2Nal]LAAR[Sar]K-NH2; also: dimer: second identical mPEG-propionyl chain on Lys Nε of C-terminal lysinamide) [RWJ-800088]
[1]; CD2F1, 24 hours post-TBI (9.3 Gy), doses 0.1 to 3 mg/kg (FIG. 12A)
  dose dependence of survival: increase in survival from 0.1 to 1 mg/kg and then a slight reduction in the survival benefit at 2 and 3 mg/kg
[1]; [3]
  Survival Differential (Treatment-Vehicle): 53%
  Survival treatment: 88%
[1]; [4]
  Survival Differential (Treatment-Vehicle): 41%
  Survival treatment: 83%
[1]; [5]
  Survival Differential (Treatment-Vehicle): 42%
  Survival treatment: 71%
[1]; [6]
  Survival Differential (Treatment-Vehicle): 50%
  Survival treatment: 79%
[1]; [7]
  Survival Differential (Treatment-Vehicle): 25%
  Survival treatment: 58%
[1]; 9.35 Gy, 0.3 mg/kg single dose, Post 24 hr, 0.3 mg/kg
  Survival treatment: 71%
[1]; [8]
  Survival Differential (Treatment-Vehicle): 25% and 17%
  Survival treatment: 58% and 71%
[1]; [9]
  Survival Differential (Treatment-Vehicle): 21%
  Survival treatment: 54%
[1]; [10]
  Survival Differential (Treatment-Vehicle): 8%
  Survival treatment: 50%
[1]; [11]
  Survival Differential (Treatment-Vehicle): 29%
  Survival treatment: 63%
[1]; [12]
  Survival Differential (Treatment-Vehicle): 17%
  Survival treatment: 50%
[1]; [13]
  Survival Differential (Treatment-Vehicle): 13%
  Survival treatment: 46%
[1]; [14]
  Survival Differential (Treatment-Vehicle): 21%
  Survival treatment: 42%
[1]; [15]
  Survival Differential (Treatment-Vehicle): 92%
  Survival treatment: 92%
[1]; [16]
  Survival Differential (Treatment-Vehicle): 42%
  Survival treatment: 63%
[1]; [17]
  Survival Differential (Treatment-Vehicle): 58%
  Survival treatment: 92%
[1]; [18]
  Survival Differential (Treatment-Vehicle): 96%
  Survival treatment: 100%
[1]; [19]
  Survival Differential (Treatment-Vehicle): 92% and 96%
  Survival treatment: 92% and 100%
[1]; [20]
  Survival Differential (Treatment-Vehicle): 67% and 60%
  Survival treatment: 88% and 80%
[1]; [21]
  Survival Differential (Treatment-Vehicle): 80%
  Survival treatment: 90%
[1]; [22]
  Survival Differential (Treatment-Vehicle): 50%
  Survival treatment: 70%
[1]; [23]
  Survival Differential (Treatment-Vehicle): 92%
  Survival treatment: 92%
[1]; [24]
  Survival Differential (Treatment-Vehicle): 96%
  Survival treatment: 96%
[1]; [25]
  Survival Differential (Treatment-Vehicle): 33%
  Survival treatment: 54%
[1]; [26]
  Survival Differential (Treatment-Vehicle): 100%
  Survival treatment: 100%
[1]; [27]
  Survival Differential (Treatment-Vehicle): 90%
  Survival treatment: 90%
[1]; [28]
  Survival Differential (Treatment-Vehicle): 95%
  Survival treatment: 95%
[1]; [29]
  Survival Differential (Treatment-Vehicle): 100%
  Survival treatment: 100%
[1]; [30]
  Survival Differential (Treatment-Vehicle): 90% and 100%
  Survival treatment: 90% and 100%
[1]; 11 Gy, 0.1 mg/kg single dose, Pre −24 hr
  Survival Differential (Treatment-Vehicle): 54%
[1]; 11 Gy, 0.1 mg/kg single dose, Pre −24 hr, 0.1 mg/kg
  Survival treatment: 54%
[1]; 11 Gy, 0.1 mg/kg single dose, Pre −24 hr, listed as TPOm, 0.1 mg/kg
  Survival treatment: 54%
[1]; 11 Gy, 0.3 mg/kg single dose, Pre −24 hr
  Survival Differential (Treatment-Vehicle): 83%
[1]; 11 Gy, 0.3 mg/kg single dose, Pre −24 hr, 0.3 mg/kg
  Survival treatment: 83%
[1]; 11 Gy, 0.3 mg/kg single dose, Pre −24 hr, listed as TPOm, 0.3 mg/kg
  Survival treatment: 83%
[1]; [31]
  Survival Differential (Treatment-Vehicle): 17%
  Survival treatment: 17%
[1]; [32]
  Survival Differential (Treatment-Vehicle): 100%
  Survival treatment: 100%
[1]; 11 Gy, 1 mg/kg single dose, Pre −24 hr, 1 mg/kg
  Survival treatment: 96%
[1]; [33]
  Survival Differential (Treatment-Vehicle): 71% and 96% and 100%
  Survival treatment: 71% and 96% and 100%
[1]; 11 Gy, 3 mg/kg single dose, Pre −24 hr
  Survival Differential (Treatment-Vehicle): 100%
[1]; 11 Gy, 3 mg/kg single dose, Pre −24 hr, 3 mg/kg
  Survival treatment: 100%
[1]; 11 Gy, 3 mg/kg single dose, Pre −24 hr, listed as TPOm, 3 mg/kg
  Survival treatment: 100%
[1]; [34]
  Survival Differential (Treatment-Vehicle): 92%
  Survival treatment: 92%
[1]; [35]
  Survival Differential (Treatment-Vehicle): 75%
  Survival treatment: 75%
[1]; [36]
  Survival Differential (Treatment-Vehicle): 88%
  Survival treatment: 88%
[1]; [37]
  Survival Differential (Treatment-Vehicle): 83%
  Survival treatment: 83%
[1]; [38]
  Survival Differential (Treatment-Vehicle): 54%
  Survival treatment: 54%
[1]; [39]
  Survival Differential (Treatment-Vehicle): 46%
  Survival treatment: 46%
[1]; [40]
  Survival Differential (Treatment-Vehicle): 42%
  Survival treatment: 42%
[1]; [41]
  Survival Differential (Treatment-Vehicle): 13%
  Survival treatment: 13%
[1]; [42]
  Survival Differential (Treatment-Vehicle): 1%
  Survival treatment: 1%
[1]; CD2F1 male, 1 mg/kg administered 24 h prior to radiation exposure (FIG. 13)
  enhancement in survival efficacy: ~100%
[1]; CD2F1 male, 9.35 Gy, 0.3 mg/kg 24 h pre-TBI (FIG. 3A)
  survival: 83%
[1]; CD2F1 male, 9.35 Gy, 0.3 mg/kg/dose SC at 24 h+48 h+72 h post-TBI
  survival, 3-dose regimen: 50%
[1]; CD2F1 male, 9.35 Gy, 0.3 mg/kg/dose SC at 24 h+48 h post-TBI
  survival, 2-dose regimen: 54%
[1]; CD2F1 male, 9.75 Gy, RWJ-800088 treated groups 0.1-3 mg/kg 24 h pre-TBI (FIG. 3B)
  survival: 92-100%
[1]; CD2F1 male, 10.5 Gy, range of doses 0.1-3 mg/kg 24 h pre-TBI (FIG. 3C)
  percent survival: 90-100%
[1]; Mice, whole body irradiation, whole wrapped cell: Enhanced survival, mitigation against thrombocytopenia, anemia, reduced adhesion protein expression on endothelial cells
  Effects: Enhanced survival,
[1]; 1 mg/kg 24 h post-TBI (FIG. 14)
  Dose Reduction Factor: 1.05
[1]; 1 mg/kg 24 h pre-TBI (FIG. 15)
  Dose Reduction Factor: 1.38
[1]; post-TBI administration
  optimum single dose as mitigator of radiation induced mortality in mice: 0.3 to 1.0 mg/kg
[2]; Rhesus, whole body irradiation, 30 mg/kg, whole wrapped cell: Enhanced survival, mitigation of thrombocytopenia, anemia
  Effects: Enhanced survival,
[2]; irradiated animals, 30 mg/kg 24 hours post-TBI (FIG. 18B-D)
  decrease in RBC, reticulocytes and WBC vs irradiated vehicle: less severe decrease
[2]; sham or irradiated animals, 30 mg/kg 24 hours post-TBI (FIG. 18A)
  platelet counts, nadir and recovery: beneficial effects on platelet counts
[2]; single dose 30 mg/kg 24 hours post TBI 600 cGY, n=10/group (FIG. 17)
  survival (animals surviving): 9/10
